From patent publication US20230034660A1, “PEPTIDES THAT ENHANCE NMDA RECEPTOR FUNCTION AND USE THEREOF” (University of Pittsburgh - Of the Commonwealth System of …, priority 2019, published 2023)

Assays:
[1] = system: presynaptic release of glutamate; assay: Paired pulse ratio and coefficient of variance of AMPAR responses (release probability); format: cell-based, mice; details: peptide-treated slices; for paired pulse ratio (PPR): AMPAR EPSCs, 50 millisecond interval; for coefficient of variance (CV): AMPAR responses
Experimental: For brain slice recordings, whole-cell recordings of NMDAR EPSCs in slice DCN cartwheel cells were obtained with micropipettes (3-6 MΩ) containing 128 mM Cs(CH3O3S), 4 mM MgCl2·6H2O, 4 mM Na2ATP, 10 mM HEPES, 0.3 mM Tris-GTP, 10 mM Tris-phosphocreatine, 1 mM CsEGTA, 1 mM, QX-314, 3 mM sodium ascorbate, pH=˜7.2, 300 mOsm. Cartwheel cells were identified by the presence of complex spikes (Zhang and Oertel, 1993; Golding and Oertel, 1997; Tzounopoulos et al., 2004) in cell-attached configuration before break-in or in response to current injections in current-clamp mode after break-in. NMDAR EPSCs were recorded in voltage clamp mode, at a holding potential of +40 mV, in the presence of DNQX (20 μM, AMPA and kainate receptor antagonist), SR95531. (20 μM, GABAAR antagonist), and strychnine (1 μM, GlyR antagonist), ZX1 (100 μM) was included in the pipette in experiments where noted. Whole-cell recordings of AMPAR EPSCs were obtained with micropipettes containing […], 4.5 mM MgCl2·6 H2O, 14 mM Tris-phosphocreatine, 9 mM HEPES, 0.1 mM EGTA, 4 mM Na2ATP, 0.3 mM Tris-GTP, 10 mM sucrose, pH=7.3, 295 mOsm. AMPA EPSCs were recorded in voltage clamp mode at a holding potential of −70 mV in the presence of SR9551. (20 μM, GABAAR antagonist) and strychnine (1 μM, GlyR antagonist). Both NMDAR and […] EPSCs were evoked using an Isoflex stimulator (A.M.P.I. 0.1 ms pulses) stimulating parallel fibers with voltage pulses through a theta glass electrode. Stimulus intensity was adjusted to a level that consistently evoked stable responses. For paired pulse experiments, inter-stimulus interval was 50 milliseconds. Once a stable response was established, ZX1 (100 μM) was added to the recording solution to measure the effect of zinc chelation on EPSCs. The series resistance was not compensated because the currents measured were relatively small, therefore there was minimum voltage clamp error. The series resistance was monitored during the recording by delivering −5 mV voltage steps for 50 milliseconds for each sweep. The peak current value (ΔIpeak) generated immediately after the step in the command potential was used to calculate series resistance (Rseries) using the following formula: Rseries=−5 mv/ΔIpeak. […] All values reported are animal-based values, in cases where multiple cells were recorded from the same animal preparation, the average of cells is presented (Lazic et al., 2018). […]
Next, it was evaluated whether a change in presynaptic release of glutamate could contribute to the observed actions of N2AZ on NMDAR-mediated synaptic currents. […] To measure PPR, two stimuli were given in rapid succession and the ratio of the second EPSC to the first was calculated. […]

NMDAR [2] = assay: NMDAR EPSCs in DCN cartwheel cells in brain slices, ZX1 potentiation; format: cell-based, mice; details: ZX1 100 μM; for ZX1 potentiation of NMDAR-mediated synaptic currents, 20 Hz: slices treated with peptide 3 μM at least 1 hour, parallel fibers stimulated at 20 Hz, +40 mV
NMDAR [3] = assay: NMDAR Lev-EPSCs in auditory cortex L2/3 principal neurons, ZX1 effect; format: cell-based, ICR mice; details: auditory cortex slices incubated with peptide or scramble; 100 μM ZX1; +40 mV
Excerpt: (FIG. 11A) Left: schematic illustration of stereotaxic injections in ICR mice, of retrograde microspheres of different colors to label corticocallosal (CCal) and corticollicular (CCol) neurons. CCol neurons were used to identify AC, and viral vector (AAV) for expression of channel rhodopsin (ChR2) in AC L2/3 PNs. Right: schematic illustrating slice electrophysiology experiment involving photostimulation of ChR2 expressing AC L2/3 PNs while recording from adjacent L2/3 PNs. (FIG. 11B) Top: representative traces of L2/3 PN NMDAR Lev-EPSCs (at +40 mV) evoked by a 0.15-ms duration pulse photostimulation of adjacent PNs in control and after 100 μM ZX1, in slices incubated with scramble. Bottom: same as the top panel in slices incubated with the peptide. (FIG. 11C) Time course of the average amplitude of NMDAR Lev-EPSCs before and after ZX1 in slices incubated with scramble and peptide. During the entire experiment application of DNQX and SR 95531 blocked AMPARs and GABAARs, correspondingly. (FIG. 11D) Average effect of ZX1 on L2/3 PN NMDAR Lev-EPSCs amplitudes normalized to control. Peptide ZX1 effect=99.02±3.8%, P=0.521, paired 1-tests, n=3 cells from two mice: Scramble ZX1 effect=159.4±15.8%, P=0.068, paired t-tests, n=4 cells from three mice. The difference is statistically significant at P=0.034, Unpaired t-test. Asterisk denotes a statistically significant difference at P<0.05. […]

Row | Sequence | paired pulse ratio (PPR) [1] | coefficient of variance (CV) [1] | ZX1 potentiation of NMDAR-mediated synaptic currents, WT littermates (NMDAR [2]; N2AZ-treated slices (3 μM) from WT littermate controls, 20 Hz) | ZX1 potentiation of NMDAR-mediated synaptic currents, ZnT3 KO (NMDAR [2]; N2AZ-treated slices (3 μM) from ZnT3 null mice, 20 Hz) | ZX1 potentiation of NMDAR-mediated synaptic currents, 20 Hz (NMDAR [2]) | ZX1 potentiation of NMDAR EPSCs, 100 Hz (NMDAR [2]; slices treated with peptide 3 μM, 100 Hz stimulation frequency) | ZX1 effect on L2/3 PN NMDAR Lev-EPSCs amplitudes normalized to control (NMDAR [3])
1 | NDSYLRSSL [Peptide N2AZ] | 2.29±0.07 | 0.26±0.031 | 5.60±4.38% | 11.9±6.90% | 19.39±5.82% | 1.95±4.33% | 99.02±3.8%
2 | SNLSDSYDR [scN2AZ, reference compound] | 2.18±0.26 | 0.28±0.030 | – | – | 47.30±10.14% | – | 159.4±15.8%
